Conditions: 101.33 kPa, Liquid

CCOC(=O)CC(=O)OCC [diethyl 1,3-propanedioate]
Conditions	mass density [kg/m3]
278.15 K	1071.04
288.14 K	1060.33
298.15 K	1049.6
313.15 K	1033.5
328.15 K	1017.34
338.15 K	1006.5
348.15 K	995.631
358.15 K	984.697

Source: the NIST ThermoML archive (doi:10.1021/je9003806)
